The values below come from publication PMC6409486 (Stem Cell Reports, 2019).

Data set [1] relates to human iPSC-derived MNs. In words: TUBB3 immunostaining and neurite segmentation of human MNs with DetaNO. The data set is classed as cell-based.
Data set [2] concerns FACS-purified mouse ESC-derived MNs. Description: FACS-purified MNs cultured with DetaNO in the absence of astrocytes. The data set is classed as cell-based.
Data set [3] deals with mouse ESC-derived MNs. Description: Compounds on unstressed MNs. To be noted: for toxicity to unstressed MNs: absence of any stress; for survival of unstressed MNs: unstressed conditions. The format is cell-based.
Data set [4] deals with human iPSC-derived MNs. Description: CellTiter-Glo assay, human MNs stressed with 400 μM DetaNO. The data set is classed as cell-based. Background: In ATP-based viability assays light output follows the ATP content of the culture.
The test system of data set [5] is mouse ESC-derived MNs. In words: MN survival with activated BV2 cells. The data set is classed as cell-based.
In data set [6] the test system is mouse ESC-derived MNs. In words: MN survival with DetaNO. The format is cell-based.
A further data set concerns the target GSK3β (Homo sapiens, UniProt P49841). The settings on record: 1 μM; ref Chen et al., 2016; cited from earlier work.
The test system of data set [7] is mouse ESC-derived MNs. In words: CHIR rescue of CP681301-mediated cytotoxicity. The data set is classed as cell-based. To be noted: 5 μM CP681301, increasing concentrations of CHIR (1.25-2.5 µM).
In data set [8] the target is T1, CDK7 (Homo sapiens, UniProt P50613). In words: CDK7 LANCE Assay. The settings on record: biochemical profiling. For orientation: TR-FRET usually uses a lanthanide donor and a delayed reading to cut background.
T1 sequence (P50613 whole entry, species assumed): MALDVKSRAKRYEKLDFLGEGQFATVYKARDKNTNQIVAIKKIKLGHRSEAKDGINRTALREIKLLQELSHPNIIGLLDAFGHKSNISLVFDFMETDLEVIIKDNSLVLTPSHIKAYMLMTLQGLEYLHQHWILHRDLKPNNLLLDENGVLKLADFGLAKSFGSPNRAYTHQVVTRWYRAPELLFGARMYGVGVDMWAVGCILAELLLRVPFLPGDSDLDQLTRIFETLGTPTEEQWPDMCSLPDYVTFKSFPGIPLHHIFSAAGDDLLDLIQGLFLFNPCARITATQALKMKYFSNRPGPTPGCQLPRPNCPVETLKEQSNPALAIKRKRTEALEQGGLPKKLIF
T1 sequence (P51946 whole entry partner, species assumed): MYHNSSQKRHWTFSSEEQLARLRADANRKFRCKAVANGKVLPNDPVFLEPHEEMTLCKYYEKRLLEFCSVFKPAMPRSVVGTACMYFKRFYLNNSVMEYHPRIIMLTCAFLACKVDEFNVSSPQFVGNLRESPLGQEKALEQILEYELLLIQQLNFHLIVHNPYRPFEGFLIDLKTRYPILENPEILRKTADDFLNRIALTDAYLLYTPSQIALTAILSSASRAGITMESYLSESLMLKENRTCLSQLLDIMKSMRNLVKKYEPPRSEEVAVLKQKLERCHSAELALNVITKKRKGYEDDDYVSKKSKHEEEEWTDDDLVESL
T1 sequence (P51948 whole entry partner, species assumed): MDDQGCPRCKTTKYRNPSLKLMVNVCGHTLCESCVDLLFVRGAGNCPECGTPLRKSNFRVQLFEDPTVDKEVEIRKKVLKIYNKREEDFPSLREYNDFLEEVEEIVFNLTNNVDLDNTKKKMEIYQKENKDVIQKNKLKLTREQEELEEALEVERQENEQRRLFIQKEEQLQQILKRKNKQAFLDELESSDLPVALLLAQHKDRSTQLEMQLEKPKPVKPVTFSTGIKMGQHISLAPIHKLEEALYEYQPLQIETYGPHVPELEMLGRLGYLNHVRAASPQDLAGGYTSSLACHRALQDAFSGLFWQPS
In another data set the test system is iPSC-derived MNs. Description: Label-free quantitative phosphoproteomics of DetaNO-treated MNs. The format is cell-based, human.
Data set [9] addresses T2, CDK9 (Homo sapiens, UniProt P50750). Description: CDK9 LANCE Assay. To be noted: biochemical profiling.
The target in data set [10] is T1, CDK7. The settings on record: 10 μM; ref Fabian et al., 2005; http://lincs.hms.harvard.edu/db/datasets/20044/; cited from earlier work.
The target in data set [11] is T2, CDK9. The settings on record: 10 μM; ref Fabian et al., 2005; http://lincs.hms.harvard.edu/db/datasets/20044/; cited from earlier work.

Entries after “also recorded” stand apart in the source; their conditions may differ. Like-named read-outs stand apart in the source and are kept apart here.

T2 sequence (P50750 whole entry, species assumed): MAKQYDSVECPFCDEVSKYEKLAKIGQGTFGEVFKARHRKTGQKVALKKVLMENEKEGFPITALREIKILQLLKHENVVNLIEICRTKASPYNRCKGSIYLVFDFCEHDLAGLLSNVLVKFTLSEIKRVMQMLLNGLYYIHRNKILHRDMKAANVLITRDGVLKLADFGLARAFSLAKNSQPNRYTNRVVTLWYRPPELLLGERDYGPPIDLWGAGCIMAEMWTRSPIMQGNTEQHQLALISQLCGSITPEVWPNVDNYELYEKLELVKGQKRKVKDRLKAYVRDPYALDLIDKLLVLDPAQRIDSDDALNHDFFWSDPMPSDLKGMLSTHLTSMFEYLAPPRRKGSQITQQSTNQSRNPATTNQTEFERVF
T2 sequence (O60563 whole entry partner, species assumed): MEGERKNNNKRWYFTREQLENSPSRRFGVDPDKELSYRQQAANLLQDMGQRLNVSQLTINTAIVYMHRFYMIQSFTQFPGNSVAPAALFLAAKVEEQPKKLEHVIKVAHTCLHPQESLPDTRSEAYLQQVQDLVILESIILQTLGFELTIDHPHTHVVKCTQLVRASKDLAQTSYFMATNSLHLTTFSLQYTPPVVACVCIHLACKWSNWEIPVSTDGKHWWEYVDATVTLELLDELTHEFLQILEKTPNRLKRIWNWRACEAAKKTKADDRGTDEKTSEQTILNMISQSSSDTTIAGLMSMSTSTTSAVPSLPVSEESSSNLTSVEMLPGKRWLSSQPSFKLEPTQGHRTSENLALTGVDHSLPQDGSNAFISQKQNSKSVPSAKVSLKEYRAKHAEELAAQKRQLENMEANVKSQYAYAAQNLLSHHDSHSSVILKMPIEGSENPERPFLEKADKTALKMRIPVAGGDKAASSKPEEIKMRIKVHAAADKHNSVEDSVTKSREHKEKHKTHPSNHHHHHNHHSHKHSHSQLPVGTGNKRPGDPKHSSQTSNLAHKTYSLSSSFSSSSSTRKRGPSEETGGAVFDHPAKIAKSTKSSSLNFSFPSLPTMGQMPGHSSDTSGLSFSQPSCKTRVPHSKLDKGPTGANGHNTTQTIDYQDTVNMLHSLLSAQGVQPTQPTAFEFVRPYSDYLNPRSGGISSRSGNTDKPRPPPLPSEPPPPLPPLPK
GSK3β, sequence (P49841 whole entry, species assumed): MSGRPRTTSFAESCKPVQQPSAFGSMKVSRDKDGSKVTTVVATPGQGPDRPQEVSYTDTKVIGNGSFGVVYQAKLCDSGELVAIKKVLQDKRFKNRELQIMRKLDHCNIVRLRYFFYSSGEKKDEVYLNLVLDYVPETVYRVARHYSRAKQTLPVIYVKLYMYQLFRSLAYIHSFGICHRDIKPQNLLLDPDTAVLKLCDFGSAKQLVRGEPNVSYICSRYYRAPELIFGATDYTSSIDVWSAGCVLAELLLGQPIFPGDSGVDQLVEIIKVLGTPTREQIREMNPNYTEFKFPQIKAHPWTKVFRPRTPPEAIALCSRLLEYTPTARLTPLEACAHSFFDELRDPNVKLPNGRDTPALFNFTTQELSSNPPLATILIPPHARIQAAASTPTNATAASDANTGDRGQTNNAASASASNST

`NCCN(CCN)/[N+]([O-])=N/O` [DetaNO, diethylenetriamine/NO adduct]: the “number of TUBB3-positive punctae” value in the data set with human iPSC-derived MNs [1] (400 μM DetaNO for 24 h) is listed as “large increase”. Also, the “area of TUBB3-positive neurite segments” value in the data set on human iPSC-derived MNs [1] (iPSC-derived MNs, DetaNO) is listed as “decreased”.

`CCc1cnn2c(NCc3ccc[n+]([O-])c3)cc(N3CCCC[C@H]3CCO)nc12` [dinaciclib]: the “protection of FACS-purified MNs from DetaNO-induced degeneration” value in data set [2] is “protected”. The “toxicity to unstressed MNs” value with mouse ESC-derived MNs [3] was “induced toxicity”. The “rescue of human MNs from DetaNO stress, CellTiter-Glo ATP levels” value with human iPSC-derived MNs [4] was “potently rescued”. Moreover, the “protection of MNs from activated BV2-induced degeneration (words)” value is given as “robustly protected” in the data set on mouse ESC-derived MNs [5] and “rescued” in the data set on mouse ESC-derived MNs [5] (listed as Dinaciclib). The “protection of MNs from DetaNO-induced degeneration (words)” value in the data set with mouse ESC-derived MNs [6] is “robustly protected”; in the data set on mouse ESC-derived MNs [6] (listed as Dinaciclib), “rescued”. For the same molecule, the “reduction of the activity of GSK3β” value at GSK3β is “about 70%”.

Regarding `CC1CCN=C(N)S1` (centres unmarked) [AMT, 2-amino-5,6-dihydro-6-methyl-4H-1,3-thiazine], in the data set with mouse ESC-derived MNs [5], the “protection of MNs from activated BV2-induced degeneration (words)” value was “rescued”.

Turning to `CC(C)(C)c1cnc(CSc2cnc(NC(=O)C3CCNCC3)s2)o1` [BMS-387032], the “toxicity to unstressed MNs” value with mouse ESC-derived MNs [3] was “induced toxicity”. Also, the “protection of MNs from activated BV2-induced degeneration (words)” value in the data set with mouse ESC-derived MNs [5] is “robustly protected; also recorded: rescued”. Further, in the data set on mouse ESC-derived MNs [6], the “protection of MNs from DetaNO-induced degeneration (words)” value is recorded as “robustly protected; also recorded: rescued”.

For the molecule `Cc1c[nH]c(-c2cnc(NCCNc3ccc(C#N)cn3)nc2-c2ccc(Cl)cc2Cl)n1` [CHIR], in the data set with mouse ESC-derived MNs [3], the “toxicity to unstressed MNs” value is listed as “did not show any cytotoxic effects” and the “survival of unstressed MNs” value was “small, but significant increase”. In the data set on mouse ESC-derived MNs [6], the “protection of MNs from DetaNO-induced degeneration (words)” value is recorded as “failed to protect”. Besides, the “rescue of MNs from CP681301-mediated cytotoxicity” value in the data set on mouse ESC-derived MNs [7] is “rescued”.

Consider `O=C1Cc2c([nH]c3ccc(Br)cc23)-c2ccccc2N1` [kenpaullone], for which the “inhibition of CDK7” value on CDK7 [8] is on record as “does not inhibit”. In the data set with mouse ESC-derived MNs [3], the “toxicity to unstressed MNs” value was “no visible toxicity” and the “survival of unstressed MNs” value is “small increase in MN survival”. The “phosphopeptide levels of MAPT, MAP1B and MAP2” value in the data set on iPSC-derived MNs (DetaNO-treated iPSC-derived MNs) was “consistently decreased”. The “phosphorylation levels of CLASP1, CLASP2 and DPYSL2” value in the data set on iPSC-derived MNs (compared with MNs cultured with DetaNO) is given as “reduced”. Besides, the “inhibition of CDK9” value against CDK9 [9] is recorded as “does not inhibit”. In the data set on mouse ESC-derived MNs [6], the “protection of MNs from DetaNO-induced degeneration (words)” value is given as “robustly protected”. In the data set with human iPSC-derived MNs [1] (400 μM DetaNO, 0.625 μM kenpaullone, two iPSC lines), the “protection of human MN neurites from DetaNO, TUBB3 neurite segments” value was “robustly protected”.

For `COc1ccc(F)c(F)c1C(=O)c1cnc(NC2CCN(S(C)(=O)=O)CC2)nc1N` [R-547], the “protection of MNs from activated BV2-induced degeneration (words)” value in the data set with mouse ESC-derived MNs [5] is given as “robustly protected; also recorded: rescued”. In the data set with mouse ESC-derived MNs [6], the “protection of MNs from DetaNO-induced degeneration (words)” value is on record as “robustly protected; also recorded: rescued”.

Consider `CC(=O)c1c(C)c2cnc(Nc3ccc(N4CCNCC4)cn3)nc2n(C2CCCC2)c1=O` [PD332991], for which, on CDK7 [10], the “ATP binding to CDK7” value is listed as “significantly reduces ATP binding”. The “protection of MNs from DetaNO-induced degeneration (words)” value with mouse ESC-derived MNs [6] is given as “not neuroprotective”. Further, the “ATP binding to CDK9” value on CDK9 [11] is “significantly reduces ATP binding”.

As to `CN1CC[C@H](c2c(O)cc(O)c3c(=O)cc(-c4ccccc4Cl)oc23)[C@H](O)C1` [flavopiridol], the “toxicity to unstressed MNs” value in the data set with mouse ESC-derived MNs [3] is on record as “induced toxicity”. Further, the “protection of MNs from activated BV2-induced degeneration (words)” value in the data set with mouse ESC-derived MNs [5] is reported as “robustly protected; also recorded: rescued”. Further, the “protection of MNs from DetaNO-induced degeneration (words)” value in the data set with mouse ESC-derived MNs [6] is recorded as “robustly protected; also recorded: rescued”.

Take `NS(=O)(=O)c1ccc(Nc2nc(OCC3CCCCC3)c3[nH]cnc3n2)cc1` [NU6102]: in the data set on mouse ESC-derived MNs [6], the “protection of MNs from DetaNO-induced degeneration (words)” value is given as “not protective”.
